For orientation: IC50 means the concentration that inhibits the measured activity by half.

Bounds are passed on as bounds.

This assay concerns the target T1, CPS1 (Homo sapiens, UniProt P31327).
T1 construct: The full length, human CPS1 gene was cloned into pFastBac HTA; His6 (from the pFastBac HTA vector); made in house; host or cells: SF21 insect cells (baculovirus, Bac-to-bac)
T1 sequence (P31327 39-1500): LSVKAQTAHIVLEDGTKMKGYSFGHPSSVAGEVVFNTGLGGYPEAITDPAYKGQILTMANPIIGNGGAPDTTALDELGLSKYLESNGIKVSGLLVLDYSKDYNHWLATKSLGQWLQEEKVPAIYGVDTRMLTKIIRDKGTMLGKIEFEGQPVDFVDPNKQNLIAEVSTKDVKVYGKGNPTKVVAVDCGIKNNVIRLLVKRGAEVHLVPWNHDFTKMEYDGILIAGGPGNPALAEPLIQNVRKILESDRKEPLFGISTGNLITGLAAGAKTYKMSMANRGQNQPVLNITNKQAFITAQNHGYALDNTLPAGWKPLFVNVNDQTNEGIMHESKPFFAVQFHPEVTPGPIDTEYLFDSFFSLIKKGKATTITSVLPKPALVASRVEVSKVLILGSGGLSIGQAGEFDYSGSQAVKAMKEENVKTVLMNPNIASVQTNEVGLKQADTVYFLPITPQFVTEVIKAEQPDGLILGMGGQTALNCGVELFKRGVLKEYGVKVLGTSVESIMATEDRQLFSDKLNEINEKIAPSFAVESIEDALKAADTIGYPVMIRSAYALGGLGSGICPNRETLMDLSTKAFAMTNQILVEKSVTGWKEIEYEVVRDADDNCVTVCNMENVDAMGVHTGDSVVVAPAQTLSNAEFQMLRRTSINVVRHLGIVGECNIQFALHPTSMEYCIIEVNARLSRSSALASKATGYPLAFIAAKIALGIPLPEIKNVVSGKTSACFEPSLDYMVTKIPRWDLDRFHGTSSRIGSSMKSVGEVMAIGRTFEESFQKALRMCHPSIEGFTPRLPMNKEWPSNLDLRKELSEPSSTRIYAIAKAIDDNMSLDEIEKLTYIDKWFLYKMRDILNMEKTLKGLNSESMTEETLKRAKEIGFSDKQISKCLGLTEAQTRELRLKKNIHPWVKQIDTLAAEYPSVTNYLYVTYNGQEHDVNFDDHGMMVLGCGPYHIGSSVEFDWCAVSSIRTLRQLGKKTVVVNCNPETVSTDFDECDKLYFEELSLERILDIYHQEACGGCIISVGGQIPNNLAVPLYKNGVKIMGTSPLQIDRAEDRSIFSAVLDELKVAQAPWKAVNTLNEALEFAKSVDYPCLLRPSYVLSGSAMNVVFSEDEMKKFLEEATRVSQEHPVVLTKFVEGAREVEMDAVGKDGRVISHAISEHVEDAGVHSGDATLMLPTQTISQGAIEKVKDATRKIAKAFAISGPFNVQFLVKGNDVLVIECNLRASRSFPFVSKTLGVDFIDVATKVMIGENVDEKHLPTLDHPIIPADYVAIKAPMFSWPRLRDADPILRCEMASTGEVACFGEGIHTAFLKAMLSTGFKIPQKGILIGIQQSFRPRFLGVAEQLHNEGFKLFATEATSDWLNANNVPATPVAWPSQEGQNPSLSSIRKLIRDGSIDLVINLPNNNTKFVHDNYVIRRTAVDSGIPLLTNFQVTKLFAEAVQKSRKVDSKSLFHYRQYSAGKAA
Description: ADP-Glo endpoint assay measuring the ATPase activity of CPS1. Format: biochemical. The settings on record: geometric mean of a minimum of two values; 50 nM CPS1, 10 μM ATP, 0.2 mM NAG, 60 min at room temperature; read-out: ADPGlo IC50. The method, boiled down: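 Full-length human His-tagged CPS1 from SF21 insect cells, 50 nM, preincubated 20 min with compound in pH 7.0 HEPES buffer containing KHCO3, (NH4)2SO3, MgCl2 and 0.2 mM NAG. Reaction started with 10 μM ATP, 60 min at room temperature; ADP formed detected by ADP-Glo luminescence.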
Background: ADP-Glo first removes unused ATP, then detects ADP through luciferase.
For the compound `COc1ccc(C(=O)N2C[C@@H](C)N(C(=O)c3ccc(-c4ccn(C)n4)cc3)[C@H](C)C2)c(F)c1` [Compound 80, ((3R,5R)-3,5-dimethyl-4-(4-(1-methyl-1H-pyrazol-3-yl)benzoyl)piperazin-1-yl)(2-fluoro-4-methoxyphenyl)methanone], the IC50 was 22.9 µM.

`COc1ccc(C(=O)N2[C@H](C)CN(C(=O)c3c(C)cc(OC)cc3F)C[C@H]2C)c(F)c1` [Compound 81, ((2R,6R)-4-(2-fluoro-4-methoxy-6-methylbenzoyl)-2,6-dimethylpiperazin-1-yl)(2-fluoro-4-methoxyphenyl)methanone]: the IC50 was found to be 25.8 µM.

Consider `COc1ccc(C(=O)N2[C@H](C)CN(C(=O)c3cc4c(OC)ccc(OC)c4[nH]3)C[C@H]2C)c(F)c1` [Compound 82, (4,7-dimethoxy-1H-indol-2-yl)((3R,5R)-4-(2-fluoro-4-methoxybenzoyl)-3,5-dimethylpiperazin-1-yl)methanone], for which the IC50 came to 26.4 µM.

Regarding `COc1ccc(C(=O)N2[C@H](C)CN(C(=O)c3ccc4ccn(C)c4c3)C[C@H]2C)c(F)c1` [Compound 83, ((2R,6R)-2,6-dimethyl-4-(1-methyl-1H-indole-6-carbonyl)piperazin-1-yl)(2-fluoro-4-methoxyphenyl)methanone], the IC50 was 31 µM.

For the compound `COc1ccc(OC)c2[nH]c(C(=O)N3[C@H](C)CN(C(=O)Cc4cc5ccccc5[nH]4)C[C@H]3C)cc12` [Compound 84, 1-((3R,5R)-4-(4,7-dimethoxy-1H-indole-2-carbonyl)-3,5-dimethylpiperazin-1-yl)-2-(1H-indol-2-yl)ethanone], the IC50 was 32.1 µM.

As to `COc1ccc(C(=O)N2C[C@@H](C)N(C(=O)c3cccc(O)c3)[C@H](C)C2)c(F)c1` [Compound 85, ((2R,6R)-4-(2-fluoro-4-methoxybenzoyl)-2,6-dimethylpiperazin-1-yl)(3-hydroxyphenyl)methanone], the IC50 turned out to be 34.1 µM.

As for `COc1ccc(C(=O)N2CCN(C(=O)c3ccc(OC)cc3F)C(C)C2C)c(F)c1` (centres unmarked) [Compound 86, (2,3-dimethylpiperazine-1,4-diyl)bis((2-fluoro-4-methoxyphenyl)methanone)], the IC50 amounted to 36.1 µM.

For the compound `COc1ccc(C(=O)N2[C@H](C)CN(C(=O)c3c[nH]c4ccc(F)cc34)C[C@H]2C)c(F)c1` [Compound 87, (5-fluoro-1H-indol-3-yl)((3R,5R)-4-(2-fluoro-4-methoxybenzoyl)-3,5-dimethylpiperazin-1-yl)methanone], the IC50 was found to be 37.7 µM.

For `COc1ccc(C(=O)N2[C@H](C)CN(C(=O)Cc3n[nH]c4ccccc34)C[C@H]2C)c(F)c1` [Compound 88, 1-((3R,5R)-4-(2-fluoro-4-methoxybenzoyl)-3,5-dimethylpiperazin-1-yl)-2-(1H-indazol-3-yl)ethanone], the IC50 was 38.2 µM.

Take `COc1ccc(C(=O)N2[C@H](C)CN(C(=O)Cc3c[nH]c4cccnc34)C[C@H]2C)c(F)c1` [Compound 89, 1-((3R,5R)-4-(2-fluoro-4-methoxybenzoyl)-3,5-dimethylpiperazin-1-yl)-2-(1H-pyrrolo[3,2-b]pyridin-3-yl)ethanone]: the IC50 was found to be 42.7 µM.

Regarding `COc1ccc(C(=O)N2C[C@@H](C)N(C(=O)c3ccc(-c4nnn[nH]4)cc3)[C@H](C)C2)c(F)c1` [Compound 90, ((3R,5R)-4-(4-(1H-tetrazol-5-yl)benzoyl)-3,5-dimethylpiperazin-1-yl)(2-fluoro-4-methoxyphenyl)methanone], the IC50 came to 45 µM.

Take `COc1ccc(OC)c2[nH]c(C(=O)N3C[C@@H](C)N(C(=O)Cc4cc5ccccc5[nH]4)[C@H](C)C3)cc12` [Compound 91, 1-((2R,6R)-4-(4,7-dimethoxy-1H-indole-2-carbonyl)-2,6-dimethylpiperazin-1-yl)-2-(1H-indol-2-yl)ethanone]: the IC50 is above 66.7 µM.

With `COc1ccc(C(=O)N2[C@H](C)CN(C(=O)c3cccc(OC)c3F)C[C@H]2C)c(F)c1` [Compound 92, ((2R,6R)-4-(2-fluoro-3-methoxybenzoyl)-2,6-dimethylpiperazin-1-yl)(2-fluoro-4-methoxyphenyl)methanone], the IC50 is above 66.7 µM.

`COc1ccc(C(=O)N2C[C@@H](C)N(C(=O)c3ccc(NC(C)=O)cc3F)[C@H](C)C2)c(F)c1` [Compound 93, N-(3-fluoro-4-((2R,6R)-4-(2-fluoro-4-methoxybenzoyl)-2,6-dimethylpiperazine-1-carbonyl)phenyl)acetamide]: the IC50 was above 66.7 µM.

Regarding `COc1ccc(C(=O)N2C[C@@H](C)N(C(=O)c3ccc(OC)cc3Cl)[C@H](C)C2)c(F)c1` [Compound 94, ((3R,5R)-4-(2-chloro-4-methoxybenzoyl)-3,5-dimethylpiperazin-1-yl)(2-fluoro-4-methoxyphenyl)methanone], the IC50 is above 66.7 µM.

Consider `COc1ccc(C(=O)N2C[C@@H](C)N(C(=O)c3c(F)cc(OC)cc3F)[C@H](C)C2)c(F)c1` [Compound 95, ((3R,5R)-4-(2,6-difluoro-4-methoxybenzoyl)-3,5-dimethylpiperazin-1-yl)(2-fluoro-4-methoxyphenyl)methanone], for which the IC50 is above 66.7 µM.

With `COc1ccc(C(=O)N2[C@H](C)CN(C(=O)c3cc(OC)ccc3F)C[C@H]2C)c(F)c1` [Compound 96, ((3R,5R)-4-(2-fluoro-4-methoxybenzoyl)-3,5-dimethylpiperazin-1-yl)(2-fluoro-5-methoxyphenyl)methanone], the IC50 was above 66.7 µM.

For `COc1ccc(C(=O)N2[C@@H](C)CN(C(=O)c3cc(OC)ccc3F)C[C@@H]2C)c(F)c1` [Compound 97, ((3S,5S)-4-(2-fluoro-4-methoxybenzoyl)-3,5-dimethylpiperazin-1-yl)(2-fluoro-5-methoxyphenyl)methanone], the IC50 is above 66.7 µM.

Take `COc1ccc(C(=O)N2[C@H](C)CN(C(=O)c3c[nH]c4ccc(O)cc34)C[C@H]2C)c(F)c1` [Compound 98, ((3R,5R)-4-(2-fluoro-4-methoxybenzoyl)-3,5-dimethylpiperazin-1-yl)(5-hydroxy-1H-indol-3-yl)methanone]: the IC50 is above 66.7 µM.

In the case of `COc1ccc(C(=O)N2C[C@@H](C)N(C(=O)c3ccc4ccn(C)c4c3)[C@H](C)C2)c(F)c1` [Compound 99, ((3R,5R)-3,5-dimethyl-4-(1-methyl-1H-indole-6-carbonyl)piperazin-1-yl)(2-fluoro-4-methoxyphenyl)methanone], the IC50 was above 66.7 µM.

Consider `COc1ccc(C(=O)N2[C@H](C)CN(C(=O)c3ccc(OC)cc3OC)C[C@H]2C)c(F)c1` [Compound 100, ((2R,6R)-4-(2,4-dimethoxybenzoyl)-2,6-dimethylpiperazin-1-yl)(2-fluoro-4-methoxyphenyl)methanone], for which the IC50 is above 66.7 µM.

Take `COc1ccc(C(=O)N2[C@H](C)CN(C(=O)c3cc(OC)c(OC)cc3F)C[C@H]2C)c(F)c1` [Compound 101, ((2R,6R)-4-(2-fluoro-4,5-dimethoxybenzoyl)-2,6-dimethylpiperazin-1-yl)(2-fluoro-4-methoxyphenyl)methanone]: the IC50 was above 66.7 µM.

As for `COc1ccc(C(=O)N2[C@H](C)CN(C(=O)c3ccc(S(C)(=O)=O)cc3F)C[C@H]2C)c(F)c1` [Compound 102, ((2R,6R)-4-(2-fluoro-4-(methylsulfonyl)benzoyl)-2,6-dimethylpiperazin-1-yl)(2-fluoro-4-methoxyphenyl)methanone], the IC50 is above 66.7 µM.

Values taken from US20230026271A1, “Piperazine Compounds for Inhibiting CPS1” (Eisai R&D Management Co., Ltd., priority 2019, published 2023).
